Data: ChEMBL document CHEMBL4715760, “Balancing potency, metabolic stability and permeability in pyrrolopyrimidine-based EGFR inhibitors” (Eur J Med Chem, 2016)

Tests used:
[1] = target: Dual specificity mitogen-activated protein kinase kinase 1 (Homo sapiens) (UniProt Q02750); test: Inhibition of recombinant full length human His-tagged MAP2K1 expressed in baculovirus expression system at 500 nM using Ser/Thr 03 as substrate incubated for 1 hr in presence of ATP at its Km concentration by Z'-LYTE assay relative to control
Sequence of Dual specificity mitogen-activated protein kinase kinase 1 (Homo sapiens) (Q02750 whole entry, the tested form may be a part): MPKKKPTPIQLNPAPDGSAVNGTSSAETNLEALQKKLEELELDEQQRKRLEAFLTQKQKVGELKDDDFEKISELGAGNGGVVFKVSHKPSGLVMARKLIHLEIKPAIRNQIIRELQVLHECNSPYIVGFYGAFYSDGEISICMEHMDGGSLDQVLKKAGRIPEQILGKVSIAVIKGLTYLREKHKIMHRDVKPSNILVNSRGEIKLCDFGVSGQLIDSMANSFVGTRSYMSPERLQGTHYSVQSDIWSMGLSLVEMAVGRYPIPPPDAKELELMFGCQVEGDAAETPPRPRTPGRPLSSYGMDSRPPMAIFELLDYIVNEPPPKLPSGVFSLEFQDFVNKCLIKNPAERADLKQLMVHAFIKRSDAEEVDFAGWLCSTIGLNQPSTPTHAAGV

[2] = target: Vascular endothelial growth factor receptor 3 (Homo sapiens) (UniProt P35916); test: Inhibition of recombinant human GST-tagged FLT4 (800 to 1297 residues) expressed in baculovirus expression system at 500 nM using Tyr 04 peptide as substrate incubated for 1 hr in presence of ATP at its Km concentration by Z'-LYTE assay relative to control
Sequence of Vascular endothelial growth factor receptor 3 (Homo sapiens) (P35916 whole entry, the tested form may be a part): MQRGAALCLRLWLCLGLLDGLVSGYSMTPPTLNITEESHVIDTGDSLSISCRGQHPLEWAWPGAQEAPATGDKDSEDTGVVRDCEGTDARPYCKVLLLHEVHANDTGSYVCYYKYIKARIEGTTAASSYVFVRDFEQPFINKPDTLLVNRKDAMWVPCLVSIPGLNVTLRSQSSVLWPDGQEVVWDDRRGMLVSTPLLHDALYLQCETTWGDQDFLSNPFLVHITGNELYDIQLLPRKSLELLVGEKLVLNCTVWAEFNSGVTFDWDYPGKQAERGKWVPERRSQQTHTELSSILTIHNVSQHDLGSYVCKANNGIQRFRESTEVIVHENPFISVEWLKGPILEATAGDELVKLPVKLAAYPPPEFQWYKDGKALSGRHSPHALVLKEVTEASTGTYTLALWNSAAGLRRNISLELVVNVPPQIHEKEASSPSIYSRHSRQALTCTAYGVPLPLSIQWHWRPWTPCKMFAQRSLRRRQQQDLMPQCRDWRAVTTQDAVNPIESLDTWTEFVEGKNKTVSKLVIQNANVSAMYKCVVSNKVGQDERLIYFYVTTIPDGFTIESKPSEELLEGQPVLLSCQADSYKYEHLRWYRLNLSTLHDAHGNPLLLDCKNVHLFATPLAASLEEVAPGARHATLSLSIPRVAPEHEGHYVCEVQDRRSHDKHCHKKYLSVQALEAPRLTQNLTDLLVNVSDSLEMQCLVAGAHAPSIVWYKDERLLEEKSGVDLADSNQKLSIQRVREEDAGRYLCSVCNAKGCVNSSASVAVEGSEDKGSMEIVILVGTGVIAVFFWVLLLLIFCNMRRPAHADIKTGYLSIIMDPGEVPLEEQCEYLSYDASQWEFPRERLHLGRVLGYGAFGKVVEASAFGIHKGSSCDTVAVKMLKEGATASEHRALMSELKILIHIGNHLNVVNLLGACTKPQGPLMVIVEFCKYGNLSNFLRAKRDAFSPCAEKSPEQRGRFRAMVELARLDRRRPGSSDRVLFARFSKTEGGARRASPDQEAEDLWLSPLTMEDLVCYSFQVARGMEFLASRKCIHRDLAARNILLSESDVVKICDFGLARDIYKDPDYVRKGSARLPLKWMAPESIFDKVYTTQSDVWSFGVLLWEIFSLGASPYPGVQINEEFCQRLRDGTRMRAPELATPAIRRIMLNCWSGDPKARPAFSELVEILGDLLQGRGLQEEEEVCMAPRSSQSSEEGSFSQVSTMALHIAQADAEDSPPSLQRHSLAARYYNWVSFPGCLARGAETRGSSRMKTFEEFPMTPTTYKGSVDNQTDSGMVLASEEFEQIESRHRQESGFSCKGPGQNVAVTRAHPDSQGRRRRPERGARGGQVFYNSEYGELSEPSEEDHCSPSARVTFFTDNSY

[3] = target: Mitogen-activated protein kinase 8 (Homo sapiens) (UniProt P45983); test: Inhibition of recombinant human His tagged human MAPK8 expressed in baculovirus expression system at 500 nM using Ser/Thr 04 as substrate incubated for 1 hr in presence of 100 uM ATP by Z'-LYTE assay relative to control
Sequence of Mitogen-activated protein kinase 8 (Homo sapiens) (P45983 whole entry): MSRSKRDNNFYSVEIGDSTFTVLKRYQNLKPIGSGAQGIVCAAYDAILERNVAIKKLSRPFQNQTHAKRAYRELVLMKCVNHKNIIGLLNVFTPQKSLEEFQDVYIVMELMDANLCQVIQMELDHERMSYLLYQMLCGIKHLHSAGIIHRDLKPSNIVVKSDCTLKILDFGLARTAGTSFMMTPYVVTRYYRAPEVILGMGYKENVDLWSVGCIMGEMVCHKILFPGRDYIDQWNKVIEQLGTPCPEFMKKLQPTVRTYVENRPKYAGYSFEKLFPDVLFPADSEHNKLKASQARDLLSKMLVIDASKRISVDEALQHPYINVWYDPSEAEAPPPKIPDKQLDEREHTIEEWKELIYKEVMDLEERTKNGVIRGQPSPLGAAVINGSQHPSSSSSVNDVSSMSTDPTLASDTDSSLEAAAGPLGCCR

[4] = target: T1, Serine/threonine-protein kinase Chk1 (Homo sapiens) (UniProt O14757); test: Inhibition of recombinant human full-length His-tagged CHEK1 expressed in baculovirus expression system at 500 nM using Ser/Thr 19 peptide as substrate incubated for 1 hr in presence of ATP at its Km concentration by Z'-LYTE assay relative to control
T1 sequence (whole entry): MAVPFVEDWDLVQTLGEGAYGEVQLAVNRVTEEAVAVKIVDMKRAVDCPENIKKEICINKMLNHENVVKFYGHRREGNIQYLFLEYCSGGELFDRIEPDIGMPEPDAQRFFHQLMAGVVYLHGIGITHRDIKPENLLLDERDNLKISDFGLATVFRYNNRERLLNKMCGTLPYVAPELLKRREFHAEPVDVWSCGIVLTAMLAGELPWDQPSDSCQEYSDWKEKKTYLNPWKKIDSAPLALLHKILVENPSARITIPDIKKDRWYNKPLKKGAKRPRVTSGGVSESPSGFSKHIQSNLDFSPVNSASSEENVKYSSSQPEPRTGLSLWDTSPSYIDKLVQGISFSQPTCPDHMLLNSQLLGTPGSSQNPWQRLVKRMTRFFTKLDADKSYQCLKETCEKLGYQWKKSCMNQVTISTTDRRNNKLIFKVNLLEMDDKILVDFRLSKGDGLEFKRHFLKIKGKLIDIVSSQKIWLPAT

[5] = target: Tyrosine-protein kinase CSK (Homo sapiens) (UniProt P41240); test: Inhibition of recombinant full length human His-tagged CSK expressed in Escherichia coli expression system at 500 nM using Tyr 02 peptide as substrate incubated for 1 hr in presence of ATP at its Km concentration by Z'-LYTE assay relative to control
[6] = target: Protein kinase C beta type (Homo sapiens) (UniProt P05771); test: Inhibition of human full length GST tagged PRKCB1 expressed in insect cells at 500 nM using Ser/Thr 07 as substrate incubated for 1 hr in presence of ATP at its Km concentration by Z'-LYTE assay relative to control
[7] = target: Serine/threonine-protein kinase pim-2 (Homo sapiens) (UniProt Q9P1W9); test: Inhibition of recombinant full length GST-tagged human PIM2 expressed in baculovirus expression system at 500 nM using Ser/Thr 07 as substrate incubated for 1 hr in presence of ATP at its Km concentration by Z'-LYTE assay relative to control
[8] = target: T2, Epidermal growth factor receptor (Homo sapiens, UniProt P00533); test: Inhibition of human EGFR using poly[Glu:Tyr] (4:1) as substrate in presence of [gamma33P]ATP by radiometric HotSpot assay
[9] = target: Tyrosine-protein kinase HCK (Homo sapiens) (UniProt P08631); test: Inhibition of recombinant full length N-terminal GST-tagged human HCK expressed in baculovirus expression system at 500 nM using Tyr 02 as substrate incubated for 1 hr in presence of ATP at its Km concentration by Z'-LYTE assay relative to control
[10] = target: T2, Epidermal growth factor receptor; settings: dose 500.0 nM, time 1.0 hrs
[11] = target: Tyrosine-protein kinase FRK (Homo sapiens) (UniProt P42685); test: Inhibition of recombinant human GST-tagged full length FRK expressed in baculovirus expression system at 500 nM using Tyr 01 peptide as substrate incubated for 1 hr in presence of ATP at its Km concentration by Z'-LYTE assay relative to control
[12] = target: Vascular endothelial growth factor receptor 2 (Homo sapiens) (UniProt P35968); test: Inhibition of recombinant human His-tagged KDR (789 to 1356 residues) expressed in baculovirus expression system at 500 nM using Tyr 01 as substrate incubated for 1 hr in presence of ATP at its Km concentration by Z'-LYTE assay relative to control
Sequence of Vascular endothelial growth factor receptor 2 (Homo sapiens) (P35968 whole entry, the tested form may be a part): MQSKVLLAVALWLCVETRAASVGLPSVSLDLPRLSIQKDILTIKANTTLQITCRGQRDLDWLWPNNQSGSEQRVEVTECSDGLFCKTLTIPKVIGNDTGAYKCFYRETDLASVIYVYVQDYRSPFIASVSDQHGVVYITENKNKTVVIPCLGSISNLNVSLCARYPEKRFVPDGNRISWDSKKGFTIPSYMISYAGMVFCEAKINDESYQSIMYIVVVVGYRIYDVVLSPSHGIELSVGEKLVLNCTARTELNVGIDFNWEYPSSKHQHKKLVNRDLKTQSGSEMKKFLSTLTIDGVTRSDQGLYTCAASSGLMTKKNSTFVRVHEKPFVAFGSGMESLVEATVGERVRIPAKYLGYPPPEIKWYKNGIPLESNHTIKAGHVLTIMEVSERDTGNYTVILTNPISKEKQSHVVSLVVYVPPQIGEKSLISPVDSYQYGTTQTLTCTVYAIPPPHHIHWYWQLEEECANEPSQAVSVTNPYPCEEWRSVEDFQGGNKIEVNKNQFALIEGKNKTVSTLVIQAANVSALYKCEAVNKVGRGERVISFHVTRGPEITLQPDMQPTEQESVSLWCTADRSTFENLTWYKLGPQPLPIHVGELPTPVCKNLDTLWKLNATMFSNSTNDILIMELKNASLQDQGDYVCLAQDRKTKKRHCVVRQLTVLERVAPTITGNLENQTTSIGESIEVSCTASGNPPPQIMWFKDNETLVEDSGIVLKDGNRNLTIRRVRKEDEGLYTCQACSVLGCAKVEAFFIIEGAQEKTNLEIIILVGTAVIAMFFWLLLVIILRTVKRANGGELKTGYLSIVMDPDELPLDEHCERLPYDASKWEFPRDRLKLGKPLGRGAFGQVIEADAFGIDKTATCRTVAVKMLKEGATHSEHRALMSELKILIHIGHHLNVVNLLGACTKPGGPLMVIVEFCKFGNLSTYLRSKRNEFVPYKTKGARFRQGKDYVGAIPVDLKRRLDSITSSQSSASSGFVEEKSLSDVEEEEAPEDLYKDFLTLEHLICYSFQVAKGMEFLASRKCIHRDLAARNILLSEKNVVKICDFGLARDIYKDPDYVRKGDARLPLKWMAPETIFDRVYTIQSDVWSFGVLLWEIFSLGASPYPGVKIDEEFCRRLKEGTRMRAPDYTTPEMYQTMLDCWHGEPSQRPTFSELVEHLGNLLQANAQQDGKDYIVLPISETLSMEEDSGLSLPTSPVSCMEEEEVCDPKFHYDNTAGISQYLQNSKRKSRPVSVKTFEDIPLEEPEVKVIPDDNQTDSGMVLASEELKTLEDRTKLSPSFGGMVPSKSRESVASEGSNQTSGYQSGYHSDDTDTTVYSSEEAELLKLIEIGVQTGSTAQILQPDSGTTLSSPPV

[13] = target: Tyrosine-protein kinase Lyn (Homo sapiens) (UniProt P07948); test: Inhibition of recombinant full length human His-tagged LYN-B expressed in baculovirus expression system at 500 nM using Tyr 02 as substrate incubated for 1 hr in presence of ATP at its Km concentration by Z'-LYTE assay relative to contro
[14] = target: Tyrosine-protein kinase SYK (Homo sapiens) (UniProt P43405); test: Inhibition of recombinant human N-terminal GST-tagged full length SYK expressed in baculovirus expression system at 500 nM using Tyr 02 as substrate incubated for 1 hr in presence of ATP at its Km concentration by Z'-LYTE assay relative to control
[15] = target: Tyrosine-protein kinase ABL1 (Homo sapiens) (UniProt P00519); test: Inhibition of recombinant full length human His-tagged ABL1 cytoplasmic domain expressed in baculovirus expression system at 500 nM using Tyr 02 peptide as substrate incubated for 1 hr in presence of ATP at its Km concentration by Z'-LYTE assay relative to control
Sequence of Tyrosine-protein kinase ABL1 (Homo sapiens) (P00519 whole entry, the tested form may be a part): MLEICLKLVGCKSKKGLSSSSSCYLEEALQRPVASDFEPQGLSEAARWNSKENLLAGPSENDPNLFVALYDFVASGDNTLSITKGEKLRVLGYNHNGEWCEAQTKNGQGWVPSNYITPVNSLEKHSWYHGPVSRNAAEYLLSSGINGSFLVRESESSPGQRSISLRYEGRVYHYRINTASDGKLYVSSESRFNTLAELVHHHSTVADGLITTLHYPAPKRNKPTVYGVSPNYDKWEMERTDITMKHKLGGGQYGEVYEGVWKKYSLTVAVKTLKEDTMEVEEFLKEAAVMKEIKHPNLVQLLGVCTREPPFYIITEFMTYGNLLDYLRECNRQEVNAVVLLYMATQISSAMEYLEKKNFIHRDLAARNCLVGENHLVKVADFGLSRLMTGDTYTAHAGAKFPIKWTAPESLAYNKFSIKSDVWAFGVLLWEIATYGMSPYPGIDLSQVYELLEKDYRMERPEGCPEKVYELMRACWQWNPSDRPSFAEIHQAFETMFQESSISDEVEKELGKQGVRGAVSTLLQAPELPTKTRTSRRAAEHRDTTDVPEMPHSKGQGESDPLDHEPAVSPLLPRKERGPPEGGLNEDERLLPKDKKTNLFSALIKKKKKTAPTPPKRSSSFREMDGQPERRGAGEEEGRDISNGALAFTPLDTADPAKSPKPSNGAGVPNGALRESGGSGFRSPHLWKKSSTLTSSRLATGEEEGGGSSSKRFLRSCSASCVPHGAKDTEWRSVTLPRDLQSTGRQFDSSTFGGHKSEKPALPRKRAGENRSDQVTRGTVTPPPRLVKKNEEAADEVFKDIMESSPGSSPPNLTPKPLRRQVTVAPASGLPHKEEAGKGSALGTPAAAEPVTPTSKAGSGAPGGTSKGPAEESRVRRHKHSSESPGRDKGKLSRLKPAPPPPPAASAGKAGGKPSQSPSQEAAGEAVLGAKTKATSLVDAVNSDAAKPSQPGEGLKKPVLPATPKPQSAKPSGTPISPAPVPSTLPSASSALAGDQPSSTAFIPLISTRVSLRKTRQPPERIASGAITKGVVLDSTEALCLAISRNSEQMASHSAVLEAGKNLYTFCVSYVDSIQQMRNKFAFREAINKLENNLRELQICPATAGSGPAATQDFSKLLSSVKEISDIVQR

[16] = target: Glycogen synthase kinase-3 beta (Homo sapiens) (UniProt P49841); test: Inhibition of recombinant full-length human His-tagged GSK3beta expressed in baculovirus expression system at 500 nM using Ser/Thr 09 as substrate incubated for 1 hr in presence of ATP at its Km concentration by Z'-LYTE assay relative to control
Sequence of Glycogen synthase kinase-3 beta (Homo sapiens) (P49841 whole entry, looked up): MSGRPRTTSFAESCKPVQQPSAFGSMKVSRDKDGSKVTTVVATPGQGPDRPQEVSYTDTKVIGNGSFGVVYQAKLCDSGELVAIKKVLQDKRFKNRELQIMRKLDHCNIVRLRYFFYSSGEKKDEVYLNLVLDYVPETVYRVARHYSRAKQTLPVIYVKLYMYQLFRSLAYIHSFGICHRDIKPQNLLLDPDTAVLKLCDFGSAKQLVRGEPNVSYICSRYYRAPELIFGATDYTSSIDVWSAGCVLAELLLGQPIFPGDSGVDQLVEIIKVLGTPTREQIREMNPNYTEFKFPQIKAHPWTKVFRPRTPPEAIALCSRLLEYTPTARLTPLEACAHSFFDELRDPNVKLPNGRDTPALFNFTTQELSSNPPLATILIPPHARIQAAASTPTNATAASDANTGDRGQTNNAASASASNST

[17] = target: Serine/threonine-protein kinase PLK1 (Homo sapiens) (UniProt P53350); test: Inhibition of recombinant full length human His-tagged PLK1 expressed in baculovirus expression system at 500 nM using Ser/Thr 16 as substrate incubated for 1 hr in presence of ATP at its Km concentration by Z'-LYTE assay relative to control
[18] = target: Serine/threonine-protein kinase B-raf (Homo sapiens) (UniProt P15056); test: Inhibition of recombinant human GST-tagged full length BRAF expressed in baculovirus expression system at 500 nM using Ser/Thr 03 peptide as substrate incubated for 1 hr in presence of 100 uM ATP by Z'-LYTE assay relative to control

Row | inhibition [1] | inhibition [2] | inhibition [3] | inhibition [4] | inhibition [5] | inhibition [6] | inhibition [7] | IC50 [8] | inhibition [9] | inhibition [10] | inhibition [11] | inhibition [12] | inhibition [13] | inhibition [14] | inhibition [15] | inhibition [16] | inhibition [17] | inhibition [18] | Compound
1 | -8% | 6% | 0% | 10% | 9% | 1% | 9% | 0.8 nM | 29% | 96% | 33% | 28% | 60% | 29% | 65% | 8% | 1% | -2% | OC[C@@H](Nc1ncnc2[nH]c(-c3ccccc3)cc12)c1ccccc1
2 | -4% | 12% | 7% | 3% | 6% | 8% | 5% | 0.4 nM | 30% | 100% | 36% | 15% | 64% | 14% | 50% | 6% |  | 4% | COc1ccccc1-c1cc2c(N[C@H](CO)c3ccccc3)ncnc2[nH]1
3 | 10% | 21% | 17% |  | 17% | 15% | 2% | 0.2 nM | 27% | 102% | 32% | 9% | 44% | 11% | 33% | 13% | -3% | 7% | CCOc1ccccc1-c1cc2c(N[C@H](CO)c3ccccc3)ncnc2[nH]1

Continued, molecule first:

Row | Compound | inhibition [1] | inhibition [2] | inhibition [3] | inhibition [4] | inhibition [5] | inhibition [6] | inhibition [7] | IC50 [8] | inhibition [9] | inhibition [10] | inhibition [11] | inhibition [12] | inhibition [13] | inhibition [14] | inhibition [15] | inhibition [16] | inhibition [17] | inhibition [18]
4 | C#Cc1cccc(Nc2ncnc3cc(OCCOC)c(OCCOC)cc23)c1 [ERLOTINIB] |  | 44% | 32% | -7% |  | -2% |  |  |  |  | 16% |  |  |  |  | -8% | -9% | 3%
5 | OCC[C@@H](Nc1ncnc2[nH]c(-c3ccccc3)cc12)c1ccccc1 | 5% | 20% | 27% |  | 19% | 6% | 6% | 0.5 nM | 31% | 100% | 14% | 0% | 49% | 5% | 38% | 8% | -5% | -3%
6 | CN(C)CCNCc1ccc(-c2cc3c(N[C@H](CO)c4ccccc4)ncnc3[nH]2)cc1F | 13% | 27% | 19% |  | 17% | 17% | -5% | 0.1 nM | 36% | 104% | 49% | 53% | 68% | 21% | 87% | 8% | -3% | -4%
